In patent publication US9630001B2, “Methods for modulating osteochondral development using bioelectric stimulation” (MedRelief Inc., priority 2005, dated 2017):

System: Normal human cartilage cells (HCC)
Experiment: Cell growth assessed by DNA content of the cell layer
Format: cell-based
Conditions: 0.1% serum, PEMF 40 microAmps once every 24 hours, measured after 72 hours, L-NAME co-administered
Procedure: Normal human cartilage cells (HCC; CAMBREX®, Walkersville, Md.) were plated in rectangular cell chambers in monolayer. PEMF application was capacitively coupled through a niobium electrode bridge system which allowed a time varying current to flow uniformly through the chambers. A pulse-burst B-type signal as described herein is composed of a 10-msec burst of asymmetric rectangular pulses, 200/28 microseconds in width, repeated at 15 Hz. The PEMF signal was applied for 30 minutes per treatment. Cell growth was assessed by DNA content of the cell layer. Nitric oxide (NO) content of culture media was assessed by the Griess reaction using an assay kit from INVITROGEN INC.® (Carlsbad, Calif.). Results are expressed as micromoles of NO per cell number as assessed by DNA content of the cell layer.

`COC(=O)[C@@H](N)CCCNC(=N)N[N+](=O)[O-]` [L-NAME, N(G)-nitro-1-arginine methyl ester] was tested, and the “effect on PEMF-increased cell number (DNA, FIG. 7)” value was “attenuated”.
